Results published in the supplement of paper PMC10307832.

Tests used:
Assay in all cases: relative viability (nuclei count vs DMSO), 5 days (fraction); higher = more cells survive
Halofuginone + Foretinib = compound: O=C(C[C@H]1NCCC[C@@H]1O)Cn1cnc2cc(Br)c(Cl)cc2c1=O (racemic) [Halofuginone] + COc1cc2c(Oc3ccc(NC(=O)C4(C(=O)Nc5ccc(F)cc5)CC4)cc3F)ccnc2cc1OCCCN1CCOCC1 [Foretinib] (partner 0.25 µM)
In short: (§1)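 Values are medians from duplicate plates. Each reflects relative viability, defined as the nuclei count of treated wells over that of vehicle wells. Lung cancer cell lines in 1536-well plates were pin-tool dosed one day after seeding with one drug alone or with a fixed anchor-drug dose plus five library-drug doses (not always all listed) in √10 steps, then fixed, stained and imaged at 4× after 5 days.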

Cediranib + Bortezomib = compound: COc1cc2c(Oc3ccc4[nH]c(C)cc4c3F)ncnc2cc1OCCCN1CCCC1 [Cediranib] + CC(C)C[C@H](NC(=O)[C@H](Cc1ccccc1)NC(=O)c1cnccn1)B(O)O [Bortezomib] (partner 0.002 µM)
In short: as §1

Decitabine + Alpelisib = compound: Nc1ncn([C@H]2C[C@H](O)[C@@H](CO)O2)c(=O)n1 [Decitabine] + Cc1nc(NC(=O)N2CCC[C@H]2C(N)=O)sc1-c1ccnc(C(C)(C)C(F)(F)F)c1 [Alpelisib] (partner 2 µM)
In short: as §1

Cediranib + Pemetrexed = compound: COc1cc2c(Oc3ccc4[nH]c(C)cc4c3F)ncnc2cc1OCCCN1CCCC1 [Cediranib] + Nc1nc2[nH]cc(CCc3ccc(C(=O)N[C@@H](CCC(=O)O)C(=O)O)cc3)c2c(=O)[nH]1 [Pemetrexed] (partner 0.2 µM)
In short: as §1

Cell Line	relative viability (Halofuginone + Foretinib; first compound 0.001 µM)	relative viability (Halofuginone + Foretinib; first compound 0.003162 µM)	relative viability (Halofuginone + Foretinib; first compound 0.01 µM)	relative viability (Halofuginone + Foretinib; first compound 0.03162 µM)	relative viability (Halofuginone + Foretinib; first compound 0.1 µM)	relative viability (Cediranib + Bortezomib; first compound 0.04 µM)	relative viability (Cediranib + Bortezomib; first compound 0.1265 µM)	relative viability (Cediranib + Bortezomib; first compound 0.4 µM)	relative viability (Cediranib + Bortezomib; first compound 1.265 µM)	relative viability (Cediranib + Bortezomib; first compound 4 µM)	relative viability (Decitabine + Alpelisib; first compound 0.04 µM)	relative viability (Decitabine + Alpelisib; first compound 0.1265 µM)	relative viability (Decitabine + Alpelisib; first compound 0.4 µM)	relative viability (Decitabine + Alpelisib; first compound 1.265 µM)	relative viability (Decitabine + Alpelisib; first compound 4 µM)	relative viability (Cediranib + Pemetrexed; first compound 0.04 µM)	relative viability (Cediranib + Pemetrexed; first compound 0.1265 µM)	relative viability (Cediranib + Pemetrexed; first compound 0.4 µM)	relative viability (Cediranib + Pemetrexed; first compound 1.265 µM)	relative viability (Cediranib + Pemetrexed; first compound 4 µM)
NCI-H2023	1.11	0.636	0.826	0.288	0.139	1.04	0.447	0.897	0.849	1.02	0.438	0.461	0.305	0.214	0.188	0.283	0.274	0.254	0.233	0.248
EBC-1	0.106	0.112	0.108	0.104	0.104	0.702	0.628	0.528	0.687	0.687	0.516	0.453	0.421	0.305	0.271	–	–	–	–	–
NCI-H1666	0.979	0.934	1.01	0.952	0.936	0.9	0.607	0.852	0.815	0.836	0.797	0.753	0.606	0.489	0.473	0.889	0.962	0.898	0.912	0.841
NCI-H1975	0.945	1.04	0.796	0.79	0.251	0.423	0.479	0.326	0.432	0.345	0.414	0.357	0.318	0.292	0.275	0.269	0.314	0.277	0.301	0.284
NCI-H2170	0.987	1	0.968	0.478	1.03	–	–	–	–	–	0.558	0.674	0.616	0.43	0.315	0.295	–	0.233	0.264	0.258
NCI-H1355	1.02	0.95	0.88	0.983	0.884	1.18	1.17	1.23	1.24	1.21	0.632	0.536	0.412	0.295	0.266	1.13	1.06	0.95	1.02	1.08
NCI-H1648	–	–	–	–	–	–	–	–	–	–	–	–	–	–	–	0.563	0.551	0.617	0.634	0.372
A549	1.06	0.921	0.925	0.507	0.112	–	–	–	–	–	0.647	0.56	0.494	0.214	0.165	–	–	–	–	–
SK-MES-1	1.06	1.06	0.911	0.828	0.611	–	–	–	–	–	0.733	0.738	0.482	0.32	0.261	1.02	1.01	0.901	0.964	1.03
EKVX	0.806	0.794	0.947	0.794	0.293	1.12	0.892	0.975	0.939	0.865	0.635	0.565	0.522	0.393	0.318	0.512	0.412	0.384	–	0.441
RERF-LC-KJ	0.902	1.01	0.967	0.853	0.815	1.09	–	1.04	1.11	1.17	0.87	0.914	0.702	0.643	0.569	0.488	0.346	0.444	0.514	0.479
NCI-H1755	0.943	0.955	0.861	0.895	0.877	0.971	0.925	0.878	0.991	0.958	0.847	0.858	0.825	0.511	0.348	0.432	0.391	0.422	0.437	0.449
NCI-H661	1.05	1.01	1	0.815	0.6	0.907	1.11	0.793	0.805	1.16	0.432	0.44	0.313	0.246	0.342	0.974	0.927	0.935	0.891	1.03
LOU-NH91	0.985	0.917	0.887	0.925	0.949	0.409	0.475	0.517	0.513	0.488	0.484	0.673	0.688	0.592	0.61	0.447	0.347	0.357	0.337	0.36
LXF-289	1.01	1.04	0.927	1.01	0.922	1.04	0.87	0.969	0.97	0.958	0.716	0.606	0.478	0.352	0.315	1.1	–	0.8	0.936	0.863
HCC-44	–	–	–	–	–	0.825	–	0.873	0.932	0.975	0.66	0.779	0.253	0.462	0.336	0.695	0.589	0.637	0.656	0.682
HARA	0.997	0.954	0.934	0.896	0.493	1.18	1.01	1.11	1.14	1.07	0.73	0.749	0.474	0.365	0.249	0.194	0.248	0.28	0.303	0.299
NCI-H727	1.11	0.884	0.732	0.738	0.527	0.807	0.55	0.789	0.64	0.747	0.453	0.405	0.333	0.35	0.401	–	–	–	–	–

Cell Line	relative viability (Halofuginone + Foretinib; first compound 0.001 µM)	relative viability (Halofuginone + Foretinib; first compound 0.003162 µM)	relative viability (Halofuginone + Foretinib; first compound 0.01 µM)	relative viability (Halofuginone + Foretinib; first compound 0.03162 µM)	relative viability (Halofuginone + Foretinib; first compound 0.1 µM)	relative viability (Cediranib + Bortezomib; first compound 0.04 µM)	relative viability (Cediranib + Bortezomib; first compound 0.1265 µM)	relative viability (Cediranib + Bortezomib; first compound 0.4 µM)	relative viability (Cediranib + Bortezomib; first compound 1.265 µM)	relative viability (Cediranib + Bortezomib; first compound 4 µM)	relative viability (Decitabine + Alpelisib; first compound 0.04 µM)	relative viability (Decitabine + Alpelisib; first compound 0.1265 µM)	relative viability (Decitabine + Alpelisib; first compound 0.4 µM)	relative viability (Decitabine + Alpelisib; first compound 1.265 µM)	relative viability (Decitabine + Alpelisib; first compound 4 µM)	relative viability (Cediranib + Pemetrexed; first compound 0.04 µM)	relative viability (Cediranib + Pemetrexed; first compound 0.1265 µM)	relative viability (Cediranib + Pemetrexed; first compound 0.4 µM)	relative viability (Cediranib + Pemetrexed; first compound 1.265 µM)	relative viability (Cediranib + Pemetrexed; first compound 4 µM)
NCI-H1650	1.33	1.11	0.964	0.601	0.177	0.201	0.169	0.205	0.223	0.194	–	–	–	–	–	0.394	0.364	0.38	0.349	0.384
NCI-H358	0.754	0.393	0.448	0.212	0.0804	–	–	–	–	–	0.747	0.519	0.383	0.266	0.238	0.176	0.198	0.168	0.17	0.187
NCI-H1792	–	–	–	–	–	1.07	1.14	0.953	0.955	0.762	0.619	0.765	0.724	0.383	0.323	–	1.13	0.567	0.742	0.796
Calu-6	0.961	0.95	0.925	0.472	0.109	1.03	0.977	1.05	0.968	1.03	0.736	0.681	0.547	0.322	0.279	–	–	–	–	–
NCI-H1395	1.02	0.934	0.925	1.06	0.879	–	–	–	–	–	0.821	0.776	0.786	0.518	0.631	0.915	0.985	0.825	0.76	0.801
NCI-H1623	0.888	0.895	0.954	0.876	0.536	–	–	–	–	–	–	–	–	–	–	–	–	–	–	–
LK-2	1.03	1.42	1.29	0.972	0.875	–	–	–	–	–	–	0.986	0.73	0.553	0.504	0.324	0.202	0.247	0.177	0.209
NCI-H1299	1.13	1.13	1.07	1.09	0.561	1.06	1.06	1.03	1.03	1.04	1.07	1.07	0.985	0.904	0.899	–	–	–	–	–
ChaGo-K-1	0.999	0.915	0.93	0.881	0.786	1.03	–	0.994	1.04	0.861	–	–	–	–	–	0.262	0.261	0.297	0.252	0.263
NCI-H1703	0.301	0.295	0.363	0.294	0.337	0.309	0.294	0.192	0.181	0.206	0.248	0.27	0.259	0.246	0.195	–	–	–	–	–
NCI-H522	–	–	–	–	–	–	–	–	–	–	–	–	–	–	–	1.16	0.713	1.14	0.863	0.995
NCI-H1793	0.814	0.74	0.538	0.67	0.429	–	–	–	–	–	0.695	0.565	0.573	0.433	0.392	0.822	0.991	0.693	0.568	1.14
ABC-1	1.28	1.38	1.07	1.13	0.9	0.33	0.272	0.307	–	0.305	0.833	0.816	0.786	0.731	0.753	–	–	–	–	–
IA-LM	1.29	1.03	1.08	0.982	0.07	1.01	1.14	0.926	0.771	0.912	0.464	0.406	0.297	0.207	0.152	–	–	–	–	–
SW 900	1.1	0.833	0.809	0.627	0.355	–	–	–	–	–	–	–	–	–	–	0.52	0.509	0.463	0.46	0.537
NCI-H2342	1.22	0.984	0.971	0.963	1.08	–	–	–	–	–	–	–	–	–	–	0.764	0.808	0.805	0.681	0.797
NCI-H1944	0.865	0.89	0.853	0.899	0.561	–	–	–	–	–	0.874	0.797	0.725	0.473	0.435	0.709	0.473	0.562	0.593	0.713
